pEC50: −log10 of the molar value.
Molecular target: human APJ receptor (Homo sapiens (Human), UniProt P35414)
Experiment: biochemical
Type: biochemical
Conditions: read-out: Activity hAPJ SPA EC50 IP
How it was run: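 Membranes from CHO cells stably expressing cloned human APJ were incubated with WGA SPA beads in 20 mM HEPES pH 7.5, 5 mM MgCl2, 0.1% BSA, 200 mM NaCl and 3 μM GDP. Reaction started with 0.2 nM [35S]GTPγS ± ligands, 90 min at RT. EC50 obtained by non-linear regression as mean of independent experiments.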

Chain of human APJ receptor (P35414 whole entry): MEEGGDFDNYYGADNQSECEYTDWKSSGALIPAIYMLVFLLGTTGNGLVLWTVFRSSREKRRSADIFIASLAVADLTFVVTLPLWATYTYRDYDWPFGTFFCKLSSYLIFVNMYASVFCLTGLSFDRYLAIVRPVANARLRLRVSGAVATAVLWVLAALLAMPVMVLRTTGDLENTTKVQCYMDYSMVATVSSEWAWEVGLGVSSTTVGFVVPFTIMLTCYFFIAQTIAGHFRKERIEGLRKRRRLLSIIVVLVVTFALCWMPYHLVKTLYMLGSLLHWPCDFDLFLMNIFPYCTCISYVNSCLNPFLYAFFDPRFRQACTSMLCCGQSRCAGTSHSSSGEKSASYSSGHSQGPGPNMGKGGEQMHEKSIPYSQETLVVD

Structure (SMILES) | pEC50
COc1cccc(OC)c1-n1c(NS(=O)(=O)CCc2ccc(F)cc2C#N)nnc1-c1cccc(=O)[nH]1 [Example 461.0, 2-(2-cyano-4-fluorophenyl)-N-(4-(2,6-dimethoxyphenyl)-5-(6-oxo-1,6-dihydro-2-pyridinyl)-4H-1,2,4-triazol-3-yl)ethanesulfonamide] | 6.17
COc1cccc(OC)c1-n1c(NS(=O)(=O)/C(C)=C(\C)c2ncc(F)cn2)nnc1-c1cncc(C)c1 [Example 504.0, (2E)-N-(4-(2,6-dimethoxyphenyl)-5-(5-methyl-3-pyridinyl)-4H-1,2,4-triazol-3-yl)-3-(5-fluoro-2-pyrimidinyl)-2-butene-2-sulfonamide] | 7.74
COc1cccc(-c2nnc(NS(=O)(=O)/C(C)=C(\C)c3ncc(F)cn3)n2-c2c(OC)cccc2OC)n1 [Example 505.0, (2E)-N-(4-(2,6-dimethoxyphenyl)-5-(6-methoxy-2-pyridinyl)-4H-1,2,4-triazol-3-yl)-3-(5-fluoro-2-pyrimidinyl)-2-butene-2-sulfonamide] | 8.72
COc1cccc(OC)c1-n1c(NS(=O)(=O)[C@H](C)[C@@H](C)c2ncc(C)cn2)nnc1-c1cccnc1 [Example 585.0, (2R,3S)—N-(4-(2,6-dimethoxyphenyl)-5-(3-pyridinyl)-4H-1,2,4-triazol-3-yl)-3-(5-methyl-2-pyrimidinyl)-2-butanesulfonamide] | 7.60
COc1cccc(OC)c1-n1c(NS(=O)(=O)[C@@H](C)[C@H](OC)c2ncc(Cl)cn2)nnc1-c1cccnc1 [Example 591.0, (1R,2S)-1-(5-chloro-2-pyrimidinyl)-N-(4-(2,6-dimethoxyphenyl)-5-(3-pyridinyl)-4H-1,2,4-triazol-3-yl)-1-methoxy-2-propanesulfonamide] | 9.68
COc1cccc(OC)c1-n1c(NS(=O)(=O)[C@H](C)[C@@H](OC)c2ncc(Cl)cn2)nnc1-c1cccnc1 [Example 592.0, (1S,2R)-1-(5-chloro-2-pyrimidinyl)-N-(4-(2,6-dimethoxyphenyl)-5-(3-pyridinyl)-4H-1,2,4-triazol-3-yl)-1-methoxy-2-propanesulfonamide] | 8.00
CCO[C@H](c1ncc(Cl)cn1)[C@H](C)S(=O)(=O)Nc1nnc(-c2cncc(C)c2)n1-c1c(OC)cccc1OC [Example 610.0, (1R,2S)-1-(5-chloro-2-pyrimidinyl)-N-(4-(2,6-dimethoxyphenyl)-5-(5-methyl-3-pyridinyl)-4H-1,2,4-triazol-3-yl)-1-ethoxy-2-propanesulfonamide] | 9.52
COc1cccc(OC)c1-n1c(NS(=O)(=O)[C@H](C)[C@@H](O)c2cnc(C)cn2)nnc1-c1cccnc1 [Example 614.0, (1S,2R)—N-(4-(2,6-dimethoxyphenyl)-5-(3-pyridinyl)-4H-1,2,4-triazol-3-yl)-1-hydroxy-1-(5-methyl-2-pyrazinyl)-2-propanesulfonamide] | 8.77
COc1cccc(OC)c1-n1c(NS(=O)(=O)[C@@H](C)[C@H](O)c2cnc(C)cn2)nnc1-c1cccnc1 [Example 615.0, (1R,2S)—N-(4-(2,6-dimethoxyphenyl)-5-(3-pyridinyl)-4H-1,2,4-triazol-3-yl)-1-hydroxy-1-(5-methyl-2-pyrazinyl)-2-propanesulfonamide] | 7.19
COc1cccc(OC)c1-n1c(NS(=O)(=O)[C@@H](C)[C@H](O)c2ncc(C)cn2)nnc1-c1cccnc1 [Example 616.0, (1R,2S)—N-(4-(2,6-dimethoxyphenyl)-5-(pyridin-3-yl)-4H-1,2,4-triazol-3-yl)-1-hydroxy-1-(5-methylpyrimidin-2-yl)propane-2-sulfonamide] | 9.34
COc1cccc(OC)c1-n1c(NS(=O)(=O)CCc2ccc(F)cc2C#N)nnc1-c1cncc(C)c1 [Example 621.0, 2-(2-cyano-4-fluorophenyl)-N-(4-(2,6-dimethoxyphenyl)-5-(5-methyl-3-pyridinyl)-4H-1,2,4-triazol-3-yl)ethanesulfonamide] | 9.08

Source: patent publication US10058550B2, “Methods of treating heart failure” (priority 2015, dated 2018)
